According to patent publication US6355799B1, “Substituted benzene compounds, process for their preparation, and herbicidal and defoliant compositions containing them” (ISK Americas Incorporated, priority 1997, dated 2002):

Tests used:
Type in all cases: in vivo
[1] = test system: field corn (Zea mays L., var. Dekalb 535, CORN); assay: Pre-emerge test, crop safety; details: rating scale 0-100, 14 days after application
In short: (§1)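 Sandy loam pots; pre-emerge: sown 1 d pre-spray, surface-watered after, then bottom-watered. Post-emerge: sown 8–21 d before, 2–3 leaf stage, + 0.25% v/v NIS, bottom-watered. Acetone, 187 l/ha track spray, 15–1000 g ai/ha. 0–100 injury score, day 14.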

[2] = test system: upland rice (Oryza sp., var. Tebonnet, RICE); assay: Pre-emerge test, crop safety; details: rating scale 0-100, 14 days after application
In short: as §1

[3] = test system: common ragweed (Ambrosia artemisizfolia L., AMBEL); assay: Post-emerge test, greenhouse herbicide activity screening; details: rating scale 0-100 (0 no damage, 100 complete death), 14 days after application
In short: (§2)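 Compounds in acetone were track-sprayed at 15–1000 g ai/ha: pre-emergence onto soil sown the previous day, then top-watered to incorporate and later bottom-watered; post-emergence onto 2–3 leaf plants with 0.25% v/v surfactant, bottom-watered only. Ratings on a 0–100 phytotoxicity scale were taken at day 14.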

[4] = test system: ivyleaf morningglory (Ipomoea hederacea, IPOHE); assay: as above; details: rating scale 0-100 (0 no damage, 100 complete death), 14 days after application
In short: as §2

[5] = test system: velvetleaf (Abutilon theophrasti, ABUTH); assay: as above; details: rating scale 0-100 (0 no damage, 100 complete death), 14 days after application
In short: as §2

[6] = test system: johnsongrass (Sorghum halepense, SORHA); assay: as above; details: rating scale 0-100 (0 no damage, 100 complete death), 14 days after application
In short: as §2

[7] = test system: green foxtail (Setaria viridis, SETVI); assay: as above; details: rating scale 0-100 (0 no damage, 100 complete death), 14 days after application
In short: as §2

[8] = test system: lambsquarters (Chenopodium album, CHEAL); assay: as above; details: rating scale 0-100 (0 no damage, 100 complete death), 14 days after application
In short: as §2

[9] = test system: barnyardgrass (Echinochloa crus-galli, ECHCG); assay: as above; details: rating scale 0-100 (0 no damage, 100 complete death), 14 days after application
In short: as §2

[10] = test system: large crabgrass (Digitaria sanguinalis, DIGSA); assay: as above; details: rating scale 0-100 (0 no damage, 100 complete death), 14 days after application
In short: as §2

[11] = test system: redroot pigweed (Amaranthus retroflexus, AMARE); assay: as above; details: rating scale 0-100 (0 no damage, 100 complete death), 14 days after application
In short: as §2

[12] = test system: sicklepod (Cassia obtusifolia, CASOB); assay: as above; details: rating scale 0-100 (0 no damage, 100 complete death), 14 days after application
In short: as §2

[13] = test system: field corn (Zea mays L., var. Dekalb 535, CORN); assay: Post-emerge test, crop safety; details: rating scale 0-100 (0 no damage, 100 complete death), 14 days after application
In short: (§3)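 Compounds in acetone were track-sprayed at 187 l/ha, 15–1000 g ai/ha, onto sandy loam pots. Pre-emerge seeds were sown one day before spraying, with surface watering afterwards. Post-emerge plants were at the 2–3 leaf stage and sprayed with 0.25% v/v non-ionic surfactant. Injury was rated 0–100 at 14 days.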

[14] = test system: upland rice (Oryza sp., var. Tebonnet, RICE); assay: Post-emerge test, crop safety; details: rating scale 0-100 (0 no damage, 100 complete death), 14 days after application
In short: as §3

[15] = test system: common ragweed (Ambrosia artemisizfolia L., AMBEL); assay: Pre-emerge test, greenhouse herbicide activity screening; details: rating scale 0-100, 14 days after application
In short: as §3

[16] = test system: ivyleaf morningglory (Ipomoea hederacea, IPOHE); assay: as above; details: rating scale 0-100, 14 days after application
In short: as §3

[17] = test system: velvetleaf (Abutilon theophrasti, ABUTH); assay: as above; details: rating scale 0-100, 14 days after application
In short: as §3

[18] = test system: johnsongrass (Sorghum halepense, SORHA); assay: as above; details: rating scale 0-100, 14 days after application
In short: as §3

[19] = test system: green foxtail (Setaria viridis, SETVI); assay: as above; details: rating scale 0-100, 14 days after application
In short: as §3

[20] = test system: lambsquarters (Chenopodium album, CHEAL); assay: as above; details: rating scale 0-100, 14 days after application
In short: as §3

[21] = test system: barnyardgrass (Echinochloa crus-galli, ECHCG); assay: as above; details: rating scale 0-100, 14 days after application
In short: as §3

[22] = test system: large crabgrass (Digitaria sanguinalis, DIGSA); assay: as above; details: rating scale 0-100, 14 days after application
In short: as §3

[23] = test system: sicklepod (Cassia obtusifolia, CASOB); assay: as above; details: rating scale 0-100, 14 days after application
In short: as §3

[24] = test system: redroot pigweed (Amaranthus retroflexus, AMARE); assay: as above; details: rating scale 0-100, 14 days after application
In short: as §3

COc1c(Cl)cc(F)c(-n2c(=O)cc(C(F)(F)F)n(C)c2=O)c1CC(Cl)C(=O)OCC(F)(F)F (stereo not drawn) [14-21]
Pre-emerge phytotoxicity rating, crop damage CORN ([1]; 63 g ai/ha): 0
Pre-emerge phytotoxicity rating, crop damage CORN ([1]; 250 g ai/ha): 70
Pre-emerge phytotoxicity rating, crop damage RICE ([2]; 63 g ai/ha): 0
Pre-emerge phytotoxicity rating, crop damage RICE ([2]; 250 g ai/ha): 20
Post-emerge Herbicidal Activity, phytotoxicity rating AMBEL ([3]; Rate 63 g ai/ha): 50
Post-emerge Herbicidal Activity, phytotoxicity rating AMBEL ([3]; Rate 250 g ai/ha): 95
Post-emerge Herbicidal Activity, phytotoxicity rating IPOHE ([4]; Rate 63 g ai/ha): 40
Post-emerge Herbicidal Activity, phytotoxicity rating IPOHE ([4]; Rate 250 g ai/ha): 50
Post-emerge Herbicidal Activity, phytotoxicity rating ABUTH ([5]; Rate 63 g ai/ha): 100
Post-emerge Herbicidal Activity, phytotoxicity rating ABUTH ([5]; Rate 250 g ai/ha): 95
Post-emerge Herbicidal Activity, phytotoxicity rating SORHA ([6]; Rate 63 g ai/ha): 10
Post-emerge Herbicidal Activity, phytotoxicity rating SORHA ([6]; Rate 250 g ai/ha): 70
Post-emerge Herbicidal Activity, phytotoxicity rating SETVI ([7]; Rate 63 g ai/ha): 10
Post-emerge Herbicidal Activity, phytotoxicity rating SETVI ([7]; Rate 250 g ai/ha): 40
Post-emerge Herbicidal Activity, phytotoxicity rating CHEAL ([8]; Rate 63 g ai/ha): 70
Post-emerge Herbicidal Activity, phytotoxicity rating CHEAL ([8]; Rate 250 g ai/ha): 95
Post-emerge Herbicidal Activity, phytotoxicity rating ECHCG ([9]; Rate 63 g ai/ha): 99
Post-emerge Herbicidal Activity, phytotoxicity rating ECHCG ([9]; Rate 250 g ai/ha): 100
Post-emerge Herbicidal Activity, phytotoxicity rating DIGSA ([10]; Rate 63 g ai/ha): 70
Post-emerge Herbicidal Activity, phytotoxicity rating DIGSA ([10]; Rate 250 g ai/ha): 98
Post-emerge Herbicidal Activity, phytotoxicity rating AMARE ([11]; Rate 63 g ai/ha): 90
Post-emerge Herbicidal Activity, phytotoxicity rating AMARE ([11]; Rate 250 g ai/ha): 100
Post-emerge Herbicidal Activity, phytotoxicity rating CASOB ([12]; Rate 63 g ai/ha): 30
Post-emerge Herbicidal Activity, phytotoxicity rating CASOB ([12]; Rate 250 g ai/ha): 60
Post-emerge phytotoxicity rating CORN (crop damage) ([13]; Rate 63 g ai/ha): 50
Post-emerge phytotoxicity rating CORN (crop damage) ([13]; Rate 250 g ai/ha): 100
Post-emerge phytotoxicity rating RICE (crop damage) ([14]; Rate 63 g ai/ha): 10
Post-emerge phytotoxicity rating RICE (crop damage) ([14]; Rate 250 g ai/ha): 45
Pre-emerge herbicidal activity, phytotoxicity rating AMBEL ([15]; 63 g ai/ha): 0
Pre-emerge herbicidal activity, phytotoxicity rating AMBEL ([15]; 250 g ai/ha): 40
Pre-emerge herbicidal activity, phytotoxicity rating IPOHE ([16]; 63 g ai/ha): 0
Pre-emerge herbicidal activity, phytotoxicity rating IPOHE ([16]; 250 g ai/ha): 0
Pre-emerge herbicidal activity, phytotoxicity rating ABUTH ([17]; 63 g ai/ha): 40
Pre-emerge herbicidal activity, phytotoxicity rating ABUTH ([17]; 250 g ai/ha): 100
Pre-emerge herbicidal activity, phytotoxicity rating SORHA ([18]; 63 g ai/ha): 0
Pre-emerge herbicidal activity, phytotoxicity rating SORHA ([18]; 250 g ai/ha): 35
Pre-emerge herbicidal activity, phytotoxicity rating SETVI ([19]; 63 g ai/ha): 0
Pre-emerge herbicidal activity, phytotoxicity rating SETVI ([19]; 250 g ai/ha): 0
Pre-emerge herbicidal activity, phytotoxicity rating CHEAL ([20]; 63 g ai/ha): 20
Pre-emerge herbicidal activity, phytotoxicity rating CHEAL ([20]; 250 g ai/ha): 75
Pre-emerge herbicidal activity, phytotoxicity rating ECHCG ([21]; 63 g ai/ha): 0
Pre-emerge herbicidal activity, phytotoxicity rating ECHCG ([21]; 250 g ai/ha): 20
Pre-emerge herbicidal activity, phytotoxicity rating DIGSA ([22]; 63 g ai/ha): 0
Pre-emerge herbicidal activity, phytotoxicity rating DIGSA ([22]; 250 g ai/ha): 70
Pre-emerge herbicidal activity, phytotoxicity rating CASOB ([23]; 63 g ai/ha): 0
Pre-emerge herbicidal activity, phytotoxicity rating CASOB ([23]; 250 g ai/ha): 10
Pre-emerge herbicidal activity, phytotoxicity rating AMARE ([24]; 63 g ai/ha): 60
Pre-emerge herbicidal activity, phytotoxicity rating AMARE ([24]; 250 g ai/ha): 95
